This is an account of results in patent US11027028B2, “Manganese complexes with substituted bisphosphonates useful as imaging and therapeutic agents” (DUKE UNIVERSITY, priority 2015, dated 2021).

Series [1] in a line: In vivo MRI after i.v. administration of Mn(II) complexes. Details: species or system mouse. As to the method: FIG. 4. A, In vivo MRI in control mouse after i.v. administration of MnNTA. B, MRI after i.v. administration of Mn:ETID ([…] of 40 mM solution).
In vivo behavior was tested of two relatively strong (log K1>7) ligands for Mn(II) chelation, nitrilotriacetic acid (NTA), closely related to EDTA, and […] (3,4-DBA).
Enhancement of the bowel is also noted but more variable, believed to represent elimination of the coordination complex from the gallbladder into the small intestine. In addition, subtle but transient T1 changes are observed in the skeletal muscles and long bones that return to normal after 30 min, paralleling the mild residual T1 changes in major vessels, consistent with a blood pool rather than local parenchymal uptake effect.

For series [2], the system named is 4T1 tumor. Nature of the series: Dynamic contrast enhancement of 4T1 tumor after i.v. administration. The note with it: pilot data. Type of series: in vivo. How it is done:
FIG. 5. Dynamic contrast enhancement of 4T1 tumor after i.v. administration of 1-hydroxybisphosphonate:Mn complex linked to HSP90 inhibitor as in Scheme 1C, 25 mg/kg. Graph on left depicts relative change in T1 enhancement in tumors after labeled drug (n=5) and after Mn:ETID complex alone (n=6).
Several synthetic strategies were used for labeling small molecule drugs either directly or via polyethyleneglycol (PEG) linkers. Two complexes, the first with a medronate analogue (Scheme IB) via the amine-terminated PEG linker and the second an etidronate analogue coupled through the COOH-terminated PEG linker (Scheme 1C), were synthesized, characterized and studied preliminarily in vivo.

The conditions of series [3]: previously FDA-approved Mn(II) agent; cited from earlier work.

SMILES strings stand for the structures.

Consider `O=C(O)CN(CC(=O)O)CC(=O)O` [NTA, nitrilotriacetic acid], for which the Cardiac enhancement result in series [1] (after i.v. administration, indicates free Mn released into the blood pool) was “cardiac enhancement was also seen”. Also, the “Biodistribution on in vivo MR imaging” value in series [1] (mouse, in vivo, iv) was “release of free Mn and hepatocellular uptake”.
With `Cc1nn(-c2ccc(C(N)=O)c(NCCCOCCOCCOCCOCCOCCCC(=O)NCCCC(O)(P(=O)(O)O)P(=O)(O)O)c2)c2c1C(=O)CC(C)(C)C2` [Scheme 1C], the “Enhancement in 4T1 tumors relative to paramagnetic coordination complex alone” value in series [2] is on record as “progressive accumulation of enhancement in 4T1 tumors that is greater than what is seen for the paramagnetic coordination complex alone”.
For the molecule `Cc1ncc(COP(=O)([O-])[O-])c(CN(CCN(CC(=O)[O-])Cc2c(COP(=O)([O-])[O-])cnc(C)c2[O-])CC(=O)[O-])c1[O-].[H+].[H+].[H+].[Mn+2].[Na+].[Na+].[Na+]` [Teslascan, mangafodipir trisodium], in series [3], the In vivo distribution result is “immediately distributed to the liver, releasing free Mn”.
